Where two headings read alike, the source gives them in different places. Square brackets hold non-standard residues; d marks the D form. Peptide text beside a SMILES is read from it. Hyp = O=C(O)[C@@H]1C[C@@H](O)CN1

Data set [1] concerns the target T1, DPPIV enzyme; human recombinant (Homo sapiens, UniProt P27487).
T1 construct: purchased BIOMOL E434-9090 (kit AK-499)
Put plainly: DPPIV inhibitory activity (DPPIV Drug Discovery Kit-AK-499, H-Gly-Pro-AMC substrate). The data set is classed as biochemical. The note with it: for IC50 (concentration at which 50% of DPPIV activity was inhibited): peptides, human recombinant DPPIV; for DPPIV inhibitory activity (in words): discussion of results. How it is done:
DPPIV inhibitory activity was determined by using a DPPIV inhibitory activity measuring kit “DPPIV Drug Discovery Kit-AK-499” (manufactured by BIOMOL). […] Inhibitory activity was evaluated by the concentration at which 50% of DPPIV activity was inhibited.

For data set [2], the system named is Human-derived intestinal tract L cells (NCI-H716 cell). In kind it is cell-based. The note with it: for GLP-1 secretion accelerating percentage: peptides, 5 mM sample, 1 hour, NCI-H716 cells, Blank = 100%, n = 4; for GLP-1 secretion accelerating activity (in words): discussion of results. How it is done: Human-derived intestinal tract L cells (NCI-H716 cell: manufactured by ATCC) were inoculated at 5×10^5 cells/mL×200 μL (1×10^5 cells/well) in a RPIM medium containing 10% FBS (manufactured by ATCC) on a Pre-coated poly-L-lysin plate (96 wells plate) and cultured for 2 days. After confirming that the cells were adhered to the plate, the medium was replaced by a test medium (146 mM NaCl, 5 mM KCl, 1.5 mM CaCl2, 1 mM MgSO4, 20 mM HEPES, 5.6 mM glucose, 2 mg/mL BSA) and a sample was added at a final concentration of 5 mM. A culture supernatant after 1 hour was 30-fold diluted with PBS, and tested with GLP-1 ELISA kit (manufactured by Levis) according to the protocol.
Based on GLP-1 secretion in the case not added with the sample (Blank) as 100%, a GLP-1 secretion accelerating percentage in the fraction added with 5 mM sample was calculated.

Data set [3] is described as follows: Intestinal tract absorptivity (intragastric administration, portal vein perfusate, LC/MS/MS). The data set is classed as in vivo, Wistar rats. The note with it: rat, po. As for the experimental part: Male Wistar rats (170 g) were fasted overnight before subjected to the experiment. As a test sample, 215 nmol/10 mL of each of the peptides was used, and intragastrically administered. As a test method, heart and portal vein of each rat were attached with a cannula to make one-directional perfusion. […] To a perfusion sample solution (5.0 mL) collected from the portal vein was added 0.5 mL of 30% sulfosalicylic acid and stirred vigorously, and left overnight in a refrigerator. This sample was centrifuged at 3000 rpm for 10 minutes, to remove protein. For the supernatant of centrifugation, an amount of hydroxyproline in 0.5 mL was colorimetrically quantified, and an amount of free-type Hyp was obtained. […] After concentrating and drying the resultant in an evaporator, and removing the hydrochloric acid, the solid was dissolved in 5 mL of distilled water, and several drops of a saturated lithium hydroxide solution was added thereto to adjust pH at 5 to 7, and the volume was fixed at 10 mL. […] The value obtained by subtracting the amount of free-type Hyp before hydrolysis from the total Hyp amount after hydrolysis is an amount of peptide-form Hyp. From this amount of peptide-form Hyp, a quantitative value of absorption of each peptide into rat portal vein perfusate in the test sample was first determined. The colorimetric quantification of the amount of hydroxyproline was conducted by a […] and Shill method, and was concretely conducted in the following manner. That is, 2 mL of 2-propanol was added to 2 mL of a sample solution and stirred thoroughly. Then, 0.5 mL of a chloramine T liquid being an oxidizing agent was added to the mixture, and left still for accurately 4 minutes, and then cooled on ice. Then, 5 mL of a p-dimethylaminobenzaldehyde solution was added to the mixture and stirred thoroughly, and then heated in a boiling water bath for accurately 2 minutes. Then, the reaction was immediately cooled on ice, and left still for 1 hour, and then colorimetrically quantified at a wavelength of 575 nm. […] Further, the p-dimethylaminobenzaldehyde solution (Erich solution) was prepared by dissolving 20 g of p-dimethylaminobenzaldehyde powder in 22 mL of concentrated hydrochloric acid under heating in boiling water, and immediately cooling the same in ice water, and adding 122 mL of 2-propanol and dissolving it under stirring. Next, peptides collected in the rat portal vein perfusate, namely the aforementioned intestinally absorbed peptides were identified and quantified by the following HPLC analysis and mass spectrometry (LC/MS/MS). Analysis of the peptide in the perfusate was conducted by reverse-phase HPLC analysis. As a HPLC device, an LCSS-905 system manufactured by JASCO Corporation, consisting of a liquid feeding pump, a degasser, an automatic sampler, a column open, a UV spectrophotometer, a printer, and a system controller was used. As a reverse-phase column, Nova Pak C18 (3.9×150 mm) was used. […] As a HPLC device, U980HPLC (manufactured by JASCO Corporation) attached with an ODS(C18) column (Mightysil RP-18, 2×250 mm, manufactured by Kanto Chemical Co., Ltd.) was used. As a mobile phase solvent, a 0.2% formic acid-containing acetonitrile-water system was used, and the concentration of acetonitrile was increased from 0% to 40% over 40 minutes by a linear gradient, and it was washed with 100% acetonitrile for 10 minutes. […] MS analysis was conducted by a MS/MS system using a Quattro LC mass spectrophotometer (Micromass, Manchester, UK) according to a four-channel Multiple Reaction Monitoring method. To be more specific, the elute from HPLC was monitored by m/z being [M+H]^+ and by m/z of its fragment ion species. At this time, [M+H]^+ m/z was monitored using 302.2>189.4 for LOG; 286.1>189.3 for POG; 187.1>70.3 for PA; 261.1>243.4 for EO, 245.1>132.3 for LO; 245.2>132.1 for IO; 318.1>225.4 for EOG; 276.1>189.4 for SOG; 219.1>132.2 for SO; and 260.1>189.4 for AOG.

[4] abbreviates: male, Wistar, in vivo, 215 nmol/10 mL.
Setting [5] is: male Wistar rats, 215 nmol/10 mL intragastrically, portal vein perfusate, read-out: Amount of peptide identified after absorption.

T1 sequence (P27487 whole entry): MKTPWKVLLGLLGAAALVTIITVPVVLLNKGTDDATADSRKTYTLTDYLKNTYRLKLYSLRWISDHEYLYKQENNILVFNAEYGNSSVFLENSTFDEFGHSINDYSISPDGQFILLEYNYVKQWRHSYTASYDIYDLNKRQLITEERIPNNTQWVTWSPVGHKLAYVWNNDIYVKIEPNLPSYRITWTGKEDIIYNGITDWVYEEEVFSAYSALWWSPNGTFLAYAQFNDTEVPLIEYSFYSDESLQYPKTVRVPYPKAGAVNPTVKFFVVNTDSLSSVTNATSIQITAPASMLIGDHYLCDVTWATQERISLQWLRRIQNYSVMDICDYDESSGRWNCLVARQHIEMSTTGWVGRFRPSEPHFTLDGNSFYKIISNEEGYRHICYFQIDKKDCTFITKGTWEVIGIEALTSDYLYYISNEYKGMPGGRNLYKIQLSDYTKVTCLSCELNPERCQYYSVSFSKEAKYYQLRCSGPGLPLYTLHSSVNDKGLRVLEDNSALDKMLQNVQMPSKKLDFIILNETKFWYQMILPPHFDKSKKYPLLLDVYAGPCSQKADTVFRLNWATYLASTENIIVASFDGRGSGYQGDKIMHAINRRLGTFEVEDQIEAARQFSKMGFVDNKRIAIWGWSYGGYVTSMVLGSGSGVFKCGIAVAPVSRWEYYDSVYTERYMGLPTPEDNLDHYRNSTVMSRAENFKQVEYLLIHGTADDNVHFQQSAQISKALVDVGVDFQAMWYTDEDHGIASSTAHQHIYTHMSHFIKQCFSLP

As for `C[C@H](N)C(=O)N1C[C@H](O)C[C@H]1C(=O)O` [AO, Ala-Hyp] (H-Ala-[Hyp]-OH; N-terminus and C-terminus assumed), the “IC50 (concentration at which 50% of DPPIV activity was inhibited)” value in data set [1] was over 10000 µM. For the same molecule, in data set [2], the “GLP-1 secretion accelerating percentage” value is given as 262 ± 71%. Also, the level at time molar in data set [3] (setting [4]) was 71 ± 0.9 µM.
With `C[C@H](N)C(=O)N1C[C@H](O)C[C@H]1C(=O)NCC(=O)O` [AOG, Ala-Hyp-Gly] (H-Ala-[Hyp]-Gly-OH; N-terminus and C-terminus assumed), in data set [1], the “DPPIV inhibitory activity (in words)” value is listed as “high DPPIV inhibitory activity” and the “IC50 (concentration at which 50% of DPPIV activity was inhibited)” value was determined as 6000 µM. In data set [2], the “GLP-1 secretion accelerating activity (in words)” value was “have GLP-1 secretion accelerating activity” and the “GLP-1 secretion accelerating percentage” value came to 120 ± 5%. Besides, the level at time molar in data set [3] (setting [5]) was 66.7 ± 1.3 µM.
Take `N[C@@H](CCC(=O)O)C(=O)N1C[C@H](O)C[C@H]1C(=O)O` [EO, Glu-Hyp] (H-Glu-[Hyp]-OH; N-terminus and C-terminus assumed): in data set [1], the “DPPIV inhibitory activity (in words)” value is given as “high DPPIV inhibitory activity” and the “IC50 (concentration at which 50% of DPPIV activity was inhibited)” value is 1500 µM. In data set [2], the “GLP-1 secretion accelerating activity (in words)” value is “have GLP-1 secretion accelerating activity” and the “GLP-1 secretion accelerating percentage” value turned out to be 148 ± 66%. In addition, the level at time molar in data set [3] (setting [4]) was determined as 156 ± 1.3 µM.
For `N[C@@H](CCC(=O)O)C(=O)N1C[C@H](O)C[C@H]1C(=O)NCC(=O)O` [EOG, Glu-Hyp-Gly] (H-Glu-[Hyp]-Gly-OH; N-terminus and C-terminus assumed) the same measures were “high DPPIV inhibitory activity”, 2900 µM, “have GLP-1 secretion accelerating activity”, 307 ± 84% and 110 ± 0.9 µM.
As for `NCC(=O)N1CCC[C@H]1C(=O)N1C[C@H](O)C[C@H]1C(=O)O` [GPO, Gly-Pro-Hyp] (H-Gly-Pro-[Hyp]-OH), the “IC50 (concentration at which 50% of DPPIV activity was inhibited)” value in data set [1] is over 10000 µM. The “GLP-1 secretion accelerating percentage” value in data set [2] stood at 278 ± 60%. In addition, the level at time molar in data set [3] (setting [5]) stood at 2.2 µM.
In the case of `CC[C@H](C)[C@H](N)C(=O)N1C[C@H](O)C[C@H]1C(=O)O` [IO, Ile-Hyp] (H-Ile-[Hyp]-OH; N-terminus and C-terminus assumed), in data set [1], the “DPPIV inhibitory activity (in words)” value is “high DPPIV inhibitory activity” and the “IC50 (concentration at which 50% of DPPIV activity was inhibited)” value is 2900 µM. The level at time molar in data set [3] (setting [4]) was determined as 163 ± 1.9 µM.
For `CC(C)C[C@H](N)C(=O)N1C[C@H](O)C[C@H]1C(=O)O` [LO, Leu-Hyp] (H-Leu-[Hyp]-OH; N-terminus and C-terminus assumed) the same measures were “high DPPIV inhibitory activity”, 1700 µM and 167.7 ± 0.9 µM.
Regarding `CC(C)C[C@H](N)C(=O)N1C[C@H](O)C[C@H]1C(=O)NCC(=O)O` [LOG, Leu-Hyp-Gly] (H-Leu-[Hyp]-Gly-OH; N-terminus and C-terminus assumed), in data set [1], the “DPPIV inhibitory activity (in words)” value is “high DPPIV inhibitory activity” and the “IC50 (concentration at which 50% of DPPIV activity was inhibited)” value worked out at 280 µM. In addition, in data set [2], the “GLP-1 secretion accelerating activity (in words)” value is given as “have GLP-1 secretion accelerating activity” and the “GLP-1 secretion accelerating percentage” value is 326 ± 17%. In addition, the level at time molar in data set [3] (setting [5]) came to 116.1 ± 1 µM.
For `C[C@H](NC(=O)[C@@H]1CCCN1)C(=O)O` [PA, Pro-Ala] (H-Pro-Ala-OH; N-terminus and C-terminus assumed), in data set [1], the “DPPIV inhibitory activity (in words)” value is “high DPPIV inhibitory activity” and the “IC50 (concentration at which 50% of DPPIV activity was inhibited)” value turned out to be 1000 µM. Also, in data set [2], the “GLP-1 secretion accelerating activity (in words)” value is reported as “have GLP-1 secretion accelerating activity” and the “GLP-1 secretion accelerating percentage” value is listed as 133 ± 85%. For the same molecule, the level at time molar in data set [3] (setting [4]) worked out at 152.6 ± 1.1 µM.
For the molecule `C[C@H](NC(=O)[C@@H]1CCCN1)C(=O)NCC(=O)O` [PAG, reference compound] (H-Pro-Ala-Gly-OH; N-terminus and C-terminus assumed), the “IC50 (concentration at which 50% of DPPIV activity was inhibited)” value in data set [1] was over 10000 µM. This molecule yielded a level at time molar in data set [3] (setting [4]) of 105 ± 1.3 µM.
Turning to `O=C(O)CNC(=O)[C@@H]1C[C@@H](O)CN1C(=O)[C@@H]1CCCN1` [POG, Pro-Hyp-Gly] (H-Pro-[Hyp]-Gly-OH; N-terminus and C-terminus assumed), in data set [1], the “DPPIV inhibitory activity (in words)” value is recorded as “high DPPIV inhibitory activity” and the “IC50 (concentration at which 50% of DPPIV activity was inhibited)” value was 600 µM. In data set [3] (setting [5]), the level at time molar is 129 ± 1 µM.
As for `N[C@@H](CO)C(=O)N1C[C@H](O)C[C@H]1C(=O)O` [SO, Ser-Hyp] (H-Ser-[Hyp]-OH; N-terminus and C-terminus assumed), in data set [1], the “DPPIV inhibitory activity (in words)” value is on record as “high DPPIV inhibitory activity” and the “IC50 (concentration at which 50% of DPPIV activity was inhibited)” value is 3600 µM. Also, in data set [2], the “GLP-1 secretion accelerating activity (in words)” value is listed as “have GLP-1 secretion accelerating activity” and the “GLP-1 secretion accelerating percentage” value was 161 ± 37%. The molecule further showed a level at time molar in data set [3] (setting [4]) of 116.1 ± 0.9 µM.
Turning to `N[C@@H](CO)C(=O)N1C[C@H](O)C[C@H]1C(=O)NCC(=O)O` [SOG, Ser-Hyp-Gly] (H-Ser-[Hyp]-Gly-OH; N-terminus and C-terminus assumed), in data set [1], the “DPPIV inhibitory activity (in words)” value is listed as “high DPPIV inhibitory activity” and the “IC50 (concentration at which 50% of DPPIV activity was inhibited)” value came out at 3000 µM. In addition, in data set [3] (setting [4]), the level at time molar is 103.2 ± 1 µM.
Turning to Hyp-Gly [OG], the “DPPIV inhibitory activity (in words)” value in data set [1] is “have DPPIV inhibitory activity”. In addition, in data set [2], the “GLP-1 secretion accelerating activity (in words)” value is “have GLP-1 secretion accelerating activity” and the “GLP-1 secretion accelerating percentage” value is recorded as 152 ± 22%.
Turning to Pro-Gly [PG], the “DPPIV inhibitory activity (in words)” value in data set [1] is “have DPPIV inhibitory activity”. In data set [2], the “GLP-1 secretion accelerating activity (in words)” value is reported as “have GLP-1 secretion accelerating activity” and the “GLP-1 secretion accelerating percentage” value is 168 ± 15%.
On the same counts, the results for Pro-Hyp [PO] are “have DPPIV inhibitory activity”, “have GLP-1 secretion accelerating activity” and 154 ± 44%.
Pro-Pro [PP]: the “DPPIV inhibitory activity (in words)” value in data set [1] is on record as “have DPPIV inhibitory activity”. Further, in data set [2], the “GLP-1 secretion accelerating activity (in words)” value was “have GLP-1 secretion accelerating activity” and the “GLP-1 secretion accelerating percentage” value came out at 167 ± 53%.

These data come from patent US9061003B2, “Therapeutic or preventive agent for diabetes” (NITTA GELATIN INC., priority 2011, dated 2015).
